Assays:
[1] = tested on: T47D (PI3Kα-H1047R) cell line; assay: HTRF phospho-AKT(S473) cell assay in T47D cells; type: cell-based, human; settings: Homo sapiens; T47D (PI3Kα-H1047R) cells, HTRF phospho-AKT(S473), 2 hours compound incubation
Summary of the method: (§1)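 T47D (PI3Kα-H1047R; RPMI, 10% FBS, insulin) and SKBR3 (wild-type PI3Kα; McCoy's 5A, 10% FBS) cells treated 2 h at 37 °C with 12-point 1:3 dilutions, top 5 μM and 10 μM respectively, ≤0.5% DMSO. SKBR3 stimulated with 70 ng/ml PDGF-BB for the last 15 min; lysate pAKT(S473) by HTRF, IC50 from curves.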

PI3Kα = PI3Kα (Homo sapiens, UniProt P42336); assay: PI3Kα enzyme assay (Transcreener ADP2 TR-FRET Red Assay); type: biochemical; settings: purified recombinant full-length protein; 2 hours pre-incubation with compound; read-out: PI3Kα WT IC50
Chain of PI3Kα (P42336 whole entry): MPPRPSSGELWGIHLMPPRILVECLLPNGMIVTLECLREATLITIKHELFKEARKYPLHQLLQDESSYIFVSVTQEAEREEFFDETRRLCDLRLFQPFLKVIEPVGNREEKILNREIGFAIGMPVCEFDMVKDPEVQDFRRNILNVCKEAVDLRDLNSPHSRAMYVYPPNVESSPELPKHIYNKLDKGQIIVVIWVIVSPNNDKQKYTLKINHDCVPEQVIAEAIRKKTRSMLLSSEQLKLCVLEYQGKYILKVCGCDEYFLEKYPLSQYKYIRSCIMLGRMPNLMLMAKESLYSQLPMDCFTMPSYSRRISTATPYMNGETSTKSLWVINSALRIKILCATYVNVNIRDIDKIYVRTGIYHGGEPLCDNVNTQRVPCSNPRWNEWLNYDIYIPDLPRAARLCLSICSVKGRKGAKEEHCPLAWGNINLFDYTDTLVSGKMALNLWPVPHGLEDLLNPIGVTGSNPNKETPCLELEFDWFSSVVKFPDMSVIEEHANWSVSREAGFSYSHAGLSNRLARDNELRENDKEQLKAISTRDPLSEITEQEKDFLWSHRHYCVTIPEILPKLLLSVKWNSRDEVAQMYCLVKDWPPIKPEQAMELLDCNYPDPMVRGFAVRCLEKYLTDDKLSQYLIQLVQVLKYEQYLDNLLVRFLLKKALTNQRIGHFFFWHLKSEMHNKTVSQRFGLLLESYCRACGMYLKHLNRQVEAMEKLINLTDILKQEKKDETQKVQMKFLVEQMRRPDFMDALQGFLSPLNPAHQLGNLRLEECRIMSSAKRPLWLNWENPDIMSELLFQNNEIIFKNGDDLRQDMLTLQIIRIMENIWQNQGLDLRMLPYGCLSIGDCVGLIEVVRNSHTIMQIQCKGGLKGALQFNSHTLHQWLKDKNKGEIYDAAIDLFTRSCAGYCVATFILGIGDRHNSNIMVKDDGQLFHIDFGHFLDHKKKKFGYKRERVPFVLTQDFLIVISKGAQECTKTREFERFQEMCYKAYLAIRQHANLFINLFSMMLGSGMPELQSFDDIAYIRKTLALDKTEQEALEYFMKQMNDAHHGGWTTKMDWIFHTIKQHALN
Chain of PI3Kα (P27986 2-724 partner): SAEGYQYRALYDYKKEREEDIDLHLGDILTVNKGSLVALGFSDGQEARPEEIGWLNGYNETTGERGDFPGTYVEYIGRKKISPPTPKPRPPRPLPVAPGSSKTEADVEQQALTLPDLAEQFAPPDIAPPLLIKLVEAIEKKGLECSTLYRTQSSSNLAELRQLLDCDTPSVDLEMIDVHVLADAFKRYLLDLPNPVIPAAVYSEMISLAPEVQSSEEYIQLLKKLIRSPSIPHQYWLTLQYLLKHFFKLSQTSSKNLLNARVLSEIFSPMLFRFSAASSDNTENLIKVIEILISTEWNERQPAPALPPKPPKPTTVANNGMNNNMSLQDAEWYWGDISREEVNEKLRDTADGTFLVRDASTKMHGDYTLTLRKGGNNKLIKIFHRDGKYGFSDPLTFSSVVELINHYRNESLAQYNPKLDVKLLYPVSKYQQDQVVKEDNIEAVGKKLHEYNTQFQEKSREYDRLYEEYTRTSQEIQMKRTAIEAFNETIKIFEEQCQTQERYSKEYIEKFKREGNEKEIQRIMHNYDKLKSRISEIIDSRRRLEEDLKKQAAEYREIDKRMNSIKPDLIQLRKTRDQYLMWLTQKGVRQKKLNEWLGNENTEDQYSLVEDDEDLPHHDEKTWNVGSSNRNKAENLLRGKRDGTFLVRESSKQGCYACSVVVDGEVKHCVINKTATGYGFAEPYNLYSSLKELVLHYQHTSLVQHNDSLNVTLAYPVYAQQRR
Summary of the method: (§2)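 IC50 taken at 50 POC from a four-parameter logistic fit of TR-FRET (665/615 nm) ADP signal. Reactions used full-length recombinant enzyme, compound pre-incubation for 2 h, then 60 min with ATP and PI(4,5)P2 diC8 substrate at room temperature, pH 7.5 HEPES buffer with 25 mM MgCl2; compounds tested from 50,000 to 0.85 nM.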

[2] = tested on: SKBR3 (PI3Kα-Wild Type) cell line; assay: HTRF phospho-AKT(S473) cell assay in SKBR3 cells; type: cell-based, human; settings: Homo sapiens, SK-BR-3; SKBR3 (PI3Kα-Wild Type) cells, HTRF phospho-AKT(S473), 2 hours compound incubation, PDGF-BB stimulated
Summary of the method: as §1

PI3Kα H1047R = PI3Kα H1047R (Homo sapiens, UniProt P42336, H1047R); assay: PI3Kα H1047R enzyme assay (Transcreener ADP2 TR-FRET Red Assay); type: biochemical; settings: purified recombinant full-length protein; 2 hours pre-incubation with compound
Chain of PI3Kα H1047R (P42336 whole entry H1047R): as the sequence (P42336 whole entry) above, with H1047R counted along it
Chain of PI3Kα H1047R (P27986 2-724 partner): as the sequence (P27986 2-724 partner) above
Summary of the method: as §2

For `CC(=O)NS(=O)(=O)c1nc(Cl)ccc1N[C@H](C)c1cc(F)cc2c(=O)n(C)c(N3CCC(F)(F)CC3)nc12` [Compound 77, (R)-N-((6-chloro-3-((1-(2-(4,4-difluoropiperidin-1-yl)-6-fluoro-3-methyl-4-oxo-3,4-dihydroquinazolin-8-yl)ethyl)amino)pyridin-2-yl)sulfonyl)acetamide], the IC50 [1] was 1000 to 5000 nM, the IC50 (PI3Kα) was ≥ 1000 nM and the IC50 [2] was ≥ 5000 nM. The IC50 (PI3Kα H1047R) was ≥ 1000 nM.

`Cc1cc([C@@H](C)Nc2ccc(Cl)nc2C(=O)NS(C)(=O)=O)c2nc(N3CCO[C@@H](C)C3)n(C)c(=O)c2c1` [Compound 36, 6-chloro-3-(((R)-1-(3,6-dimethyl-2-((S)-2-methylmorpholino)-4-oxo-3,4-dihydroquinazolin-8-yl)ethyl)amino)-N-(methylsulfonyl) picolinamide] was tested, and the IC50 [1] was 250 to 500 nM, the IC50 (PI3Kα) was ≥ 1000 nM and the IC50 [2] was 1000 to 5000 nM. The IC50 (PI3Kα H1047R) was ≥ 1000 nM.

In the case of `C[C@@H](Nc1ccc(Cl)nc1C(=O)NS(C)(=O)=O)c1cc(F)cc2c(=O)n(C)c(N3Cc4ccc(F)cc4C3)nc12` [Compound 66, (R)-6-chloro-3-((1-(6-fluoro-2-(5-fluoroisoindolin-2-yl)-3-methyl-4-oxo-3,4-dihydroquinazolin-8-yl)ethyl)amino)-N-(methylsulfonyl) picolinamide], the IC50 [1] is reported as 250 to 500 nM, the IC50 (PI3Kα) is reported as < 100 nM and the IC50 [2] is reported as 1000 to 5000 nM. For the same molecule, the IC50 (PI3Kα H1047R) was 100 to 250 nM.

For `Cc1cc([C@@H](C)Nc2ccc(Cl)nc2C(=O)NS(C)(=O)=O)c2nc(N(C)Cc3cnn(C)c3)n(C)c(=O)c2c1` [Compound 48, (R)-6-chloro-3-((1-(3,6-dimethyl-2-(methyl((1-methyl-1H-pyrazol-4-yl)methyl)amino)-4-oxo-3,4-dihydroquinazolin-8-yl)ethyl)amino)-N-(methylsulfonyl) picolinamide], the IC50 [1] was < 250 nM, the IC50 (PI3Kα) was ≥ 1000 nM and the IC50 [2] was 1000 to 5000 nM. It also gave an IC50 (PI3Kα H1047R) of 100 to 250 nM.

With `Cc1cc2c(=O)n(C)c(N3Cc4ccc(F)cc4C3)nc2c([C@@H](C)Nc2ccc(Cl)nc2C(=O)NS(C)(=O)=O)n1` [Compound 72, (R)-6-chloro-3-((1-(2-(5-fluoroisoindolin-2-yl)-3,6-dimethyl-4-oxo-3,4-dihydro-pyrido[3,4-d]pyrimidin-8-yl)ethyl)amino)-N-(methylsulfonyl)picolinamide] the IC50 [1] was 250 to 500 nM, the IC50 (PI3Kα) was ≥ 1000 nM and the IC50 [2] was 1000 to 5000 nM. The IC50 (PI3Kα H1047R) was 100 to 250 nM.

For `Cc1cc([C@@H](C)Nc2ccc(Cl)nc2C(=O)NS(C)(=O)=O)c2nc(C3CCCCC3)n(C)c(=O)c2c1` [Compound 92, (R)-6-chloro-3-((1-(2-cyclohexyl-3,6-dimethyl-4-oxo-3,4-dihydroquinazolin-8-yl)ethyl)amino)-N-(methylsulfonyl) picolinamide], the IC50 [1] was < 250 nM, the IC50 (PI3Kα) was ≥ 1000 nM and the IC50 [2] was 1000 to 5000 nM. For the same molecule, the IC50 (PI3Kα H1047R) was < 100 nM.

With `Cc1cc([C@@H](C)Nc2ccc(Cl)nc2C(=O)NS(C)(=O)=O)c2nc(NC3CCC3)n(C)c(=O)c2c1` [Compound 10, (R)-6-chloro-3-((1-(2-(cyclobutylamino)-3,6-dimethyl-4-oxo-3,4-dihydroquinazolin-8-yl)ethyl)amino)-N-(methylsulfonyl) picolinamide] the IC50 [1] was 1000 to 5000 nM, the IC50 (PI3Kα) was ≥ 1000 nM and the IC50 [2] was ≥ 5000 nM. For the same molecule, the IC50 (PI3Kα H1047R) was 250 to 500 nM.

For `Cc1cc([C@@H](C)Nc2ccc(Cl)nc2C(=O)NS(C)(=O)=O)c2nc(N3CCOCC3)n(C)c(=O)c2c1` [Compound 5, (R)-6-chloro-3-((1-(3,6-dimethyl-2-morpholino-4-oxo-3,4-dihydroquinazolin-8-yl)ethyl)amino)-N-(methylsulfonyl) picolinamide], the IC50 [1] was < 250 nM, the IC50 (PI3Kα) was ≥ 1000 nM and the IC50 [2] was 1000 to 5000 nM. For the same molecule, the IC50 (PI3Kα H1047R) was 500 to 1000 nM.

`C[C@@H](Nc1ccc(Cl)nc1C(=O)NS(C)(=O)=O)c1cc(F)cc2c(=O)n(C)c(N3Cc4cccnc4C3)nc12` [Compound 32, (R)-6-chloro-3-((1-(2-(5,7-dihydro-6H-pyrrolo[3,4-b]pyridin-6-yl)-6-fluoro-3-methyl-4-oxo-3,4-dihydroquinazolin-8-yl)ethyl)amino)-N-(methylsulfonyl) picolinamide] showed an IC50 [1] of 250 to 500 nM, an IC50 (PI3Kα) of 500 to 1000 nM and an IC50 [2] of 1000 to 5000 nM. For the same molecule, the IC50 (PI3Kα H1047R) was 250 to 500 nM.

`Cc1cc([C@@H](C)Nc2ccc(Cl)nc2C(=O)NS(C)(=O)=O)c2nc(N3CC4(C3)CC(F)(F)C4)n(C)c(=O)c2c1` [Compound 9, (R)-6-chloro-3-((1-(2-(6,6-difluoro-2-azaspiro[3.3]heptan-2-yl)-3,6-dimethyl-4-oxo-3,4-dihydroquinazolin-8-yl)ethyl)amino)-N-(methylsulfonyl) picolinamide] was tested, and the IC50 [1] was 250 to 500 nM, the IC50 (PI3Kα) was ≥ 1000 nM and the IC50 [2] was 1000 to 5000 nM. The IC50 (PI3Kα H1047R) was 500 to 1000 nM.

In the case of `Cc1cc([C@@H](C)Nc2ccc(Cl)nc2C(=O)NS(C)(=O)=O)c2nc(OCc3cccnc3)n(C)c(=O)c2c1` [Compound 56, (R)-6-chloro-3-((1-(3,6-dimethyl-4-oxo-2-(pyridin-3-ylmethoxy)-3,4-dihydroquinazolin-8-yl)ethyl)amino)-N-(methylsulfonyl) picolinamide], the IC50 [1] is reported as 250 to 500 nM, the IC50 (PI3Kα) is reported as ≥ 1000 nM and the IC50 [2] is reported as 1000 to 5000 nM. For the same molecule, the IC50 (PI3Kα H1047R) was ≥ 1000 nM.

For `Cc1cc([C@@H](C)Nc2ccc[nH]c2=O)c2nc(N3Cc4ccc(F)cc4C3)n(C)c(=O)c2c1` [Compound 94, (R)-2-(5-fluoroisoindolin-2-yl)-3,6-dimethyl-8-(1-((2-oxo-1,2-dihydropyridin-3-yl)amino)ethyl)quinazolin-4(3H)-one], the IC50 [1] was 1000 to 5000 nM, the IC50 (PI3Kα) was ≥ 1000 nM and the IC50 [2] was ≥ 5000 nM. The IC50 (PI3Kα H1047R) was ≥ 1000 nM.

For `Cc1cc([C@@H](C)Nc2ccccc2S(N)(=O)=O)c2nc(N3Cc4ccc(F)cc4C3)n(C)c(=O)c2c1` (single isomer, unassigned) [Compound 104, 2-((1-(2-(5-fluoroisoindolin-2-yl)-3,6-dimethyl-4-oxo-3,4-dihydroquinazolin-8-yl)ethyl)amino) benzenesulfonamide], the IC50 [1] was 250 to 500 nM, the IC50 (PI3Kα) was ≥ 1000 nM and the IC50 [2] was ≥ 5000 nM. For the same molecule, the IC50 (PI3Kα H1047R) was ≥ 1000 nM.

In the case of `Cc1cc([C@@H](C)Nc2ccc(Cl)nc2C(=O)NS(C)(=O)=O)c2nc(OCc3ccccc3)n(C)c(=O)c2c1` [Compound 50, (R)-3-((1-(2-(benzyloxy)-3,6-dimethyl-4-oxo-3,4-dihydroquinazolin-8-yl)ethyl)amino)-6-chloro-N-(methylsulfonyl) picolinamide], the IC50 [1] is reported as 1000 to 5000 nM, the IC50 (PI3Kα) is reported as ≥ 1000 nM and the IC50 [2] is reported as 1000 to 5000 nM. The IC50 (PI3Kα H1047R) was 250 to 500 nM.

In the case of `Cc1cc([C@@H](C)Nc2ccc(C)[nH]c2=O)c2nc(N3Cc4ccc(F)cc4C3)n(C)c(=O)c2c1` [Compound 97, (R)-2-(5-fluoroisoindolin-2-yl)-3,6-dimethyl-8-(1-((6-methyl-2-oxo-1,2-dihydropyridin-3-yl)amino)ethyl)quinazolin-4(3H)-one], the IC50 [1] is reported as 500 to 1000 nM, the IC50 (PI3Kα) is reported as ≥ 1000 nM and the IC50 [2] is reported as ≥ 5000 nM. For the same molecule, the IC50 (PI3Kα H1047R) was ≥ 1000 nM.

`Cc1cc([C@H](C)Nc2ccccc2S(=O)(=O)NC(=O)C(F)F)c2nc(N3Cc4ccc(F)cc4C3)n(C)c(=O)c2c1` (single isomer, unassigned) [Compound 103, 2,2-difluoro-N-((2-((1-(2-(5-fluoroisoindolin-2-yl)-3,6-dimethyl-4-oxo-3,4-dihydroquinazolin-8-yl)ethyl)amino)phenyl)sulfonyl)acetamide] was tested, and the IC50 [1] was 1000 to 5000 nM, the IC50 (PI3Kα) was ≥ 1000 nM and the IC50 [2] was ≥ 5000 nM. The IC50 (PI3Kα H1047R) was ≥ 1000 nM.
